Results on seven molecules are retold here after patent publication US4138485A, “Phenylalanine derivatives” (Kyowa Hakko Kogyo Kabushiki Kaisha, priority 1976, dated 1979).

For orientation: LD50 means the dose expected to kill half of the subjects tested.

Some results are limits rather than exact numbers.

One series is described as follows: Acute toxicity in rats. The note with it: in vivo; rat, oral administration, after one week; read-out: Acute Toxicity (LD50), C. The method, then: (§1) (1) Acute toxicity and tonic convulsion in hind paw:
(§2) The acute toxicity and tonic convulsion occured by stimulus by hand touch were determined in the following manner to give the results shown in Table 2.
(b) Acute toxicity in rats:
28 Groups, each consisting of 5 rats (male Wistar strain, weight -- 200 g), were used for the test and control groups. The compounds shown in Table 2 were orally administered to the rats. After one week, the survival ratio was measured.

Series [1] has as its system hyperlipemia induced by Triton. The series is described as follows: Effect on hyperlipemia induced by Triton in rats: activity in the increasing phase. It is filed as in vivo, rats (male Wistar strain). As for the experimental part:
(§3) (4) Effect on hyperlipemia induced by Triton in rats:
(i) Activity in the increasing phase:
(§4) 3 Groups, each consisting of 9 rats (male Wistar strain, weight -- 200 to 240 g) fasted for 24 hours were used for this test. Each rat was administered intravenously with 200 mg/kg of Triton (WR-1339), followed by oral administration of 200 mg/kg of the compounds shown in Table 6. After 20 hours from the administration, the blood samples were collected by decapitation. Cholesterol and triglyceride in the serum were determined in a similar manner to that used in (2, ii) to give the results shown in Table 6.

Series [2] concerns hyperlipemia induced by Triton. Put plainly: Cholesterol-lowering activity on hyperlipemia induced by Triton in mice. It is filed as in vivo, mice (male dd-strain). As to conditions: Mus musculus, po, 43 h, read-out: Ratio of the reduction of cholesterol. As for the experimental part:
(2) Cholesterol-Lowering activity on hyperlipemia induced by Triton in mice:
38 Groups, each consisting of 9 mice (male dd-strain, weight -- 19 to 21 g), were used for the test and control groups. […] Immediately after the administration and also after 20 hours from the administration of Triton, the mice were orally administered with 100 mg/kg of the compound shown in Table 3. 43 hours after the administration of Triton, the blood samples were collected by decapitation and then the corpuscle was removed by centrifugation. Cholesterol in the serum was determined by Zurkowski's method modified by Shibata (color of the test solution was developed by using sulfoalicyclic acid, acetic acid and sulfuric acid and the optical density of the solution was determined at 620 mμ.

Series [3] has as its system cholesterol and triglyceride in the serum. Put plainly: Lipid lowering activity in cynomolgus monkeys. The series is classed as in vivo, cynomolgus monkeys (male, born in Malaysia). As to conditions: 100 mg/kg/day oral, 10 days. As for the experimental part:
(6) Lipid lowering activity in cynomolgus monkeys:
6 cynomolgus monkeys (male, born in Malaysia, weight -- 2.5 to 3.9 kg) were used for this test. All monkies were breeded in individual cages at a temperature from 23° to 25° C. and fed with a solid diet for monkey (available from Oriental Yeast K.K., Japan) and sweet potatoes every morning and with apples and bananas from time to time. The monkeys were divided into 3 groups, each consisting of 2 monkeys, to orally and compulsively administer the test compound in an amount of 100 mg/kg/day once in every morning for 10 days. At 11 days after the first administration, before feeding the diet in early morning blood samples were collected from the saphenae of the monkeys to determine cholesterol and triglyceride in a similar manner to that described above. The ratio of lowering cholesterol (RCL) or triglyceride (RLT) was calculated by the following formula. [formula] wherein A is the average amount of the cholesterol or triglyceride in the serum before administration, and B is the corresponding amont after administration for 10 days.
After an interval of 5 weeks, another compound was administered to determine cholesterol or triglyceride in a similar manner to that described above. After a further interval of 5 weeks, a similar procedure was repeated by using another compound to determine cholesterol or triglyceride.

The nature of a further series: Acute toxicity in mice. The note with it: in vivo, mouse, after one week. The method, then:
as §1, §2
(a) Acute toxicity in mice:
38 Groups, each consisting of 5 mice (male dd-strain, weight -- 18 to 24 g), were used for the test and control groups. The compounds shown in Table 2 were administered orally or intraperitoneally to the mice. After one week, the survival ratio was measured.

The subject of series [4] is glycerol induced hyperlipemia. Put plainly: Lipid lowering effects on glycerol induced hyperlipemia in rats. As to conditions: 0.25% in diet. The series is classed as in vivo, rats (male Wistar strain). As for the experimental part:
(5) Lipid lowering effects on glycerol induced hyperlipemia in rats: The test was carried out in a similar method to that by […] et al [Life Science, 3, 1021 (1964)] . A group consisting of 10 rats (male Wistar strain, weight - 190 to 210 g) was used for each of the test and control groups. Hyperlipemia occurred by feeding the rats ad libitum with water containing 15% (by volume) of glycerol. […] After this, the blood samples were collected by decapitation and the serum was separated by centrifugation.

Series [5] has as its system Triglyceride, phospholipid and free fatty acid in the serum. The series is described as follows: Determination of triglyceride, phospholipid and free fatty acid in the serum of normal rats. It is filed as in vivo, rats (Wistar strain). As for the experimental part: (ii) Determination of triglyceride, phospholipid and free fatty acid in the serum of normal rats of Wistar strain: Clofibrate and Compounds 1 and 2 were tested in a similar manner to that described in (i). Triglyceride, phospholipid and free fatty acid in the serum were determined in the following manner to give the results shown in Table 5. (a) Determination of triglyceride: Triglyceride was determined by acetylacetone method [Kazuo Matsumiya et al "Rinsho Byori", Vol. 18, page 383 (1970), Japan] in the following manner. Isopropyl alcohol was added to the test solution of the serum to extract triglyceride which was then saponified with potassium hydroxide to give glycerol. The glycerol was oxidized by using sodium salt of methaperiodic acid to convert it into formaldehyde. Color of the test solution was developed by acetylacetone and the optical density at 420 mμ was determined. (b) Determination of phospholipid: "Phospholipid Test Wako", a reagent available from Wako Junyaku K.K., Japan, was used for the determination of phospholipid in the following manner according to a similar manner to that described in "Rinsho Byori", Vol. 17, page 389 (1969), Japan, by Atsuo […] et al. Trichloroacetic acid was added to the serum to give precipitates of lipoprotein which were then added with sulfuric acid and potassium permanganate to form phosphoric acid. Color of the test solution was developed by ammonium molybdate and the optical density was determined at 660 mμ. (c) Determination of free fatty acid: Laurell's method [CLin. Chim. Acta. 16, 57 (1967)] was used for determination in the following manner. […] After shaking for 5 minutes, the solution was centrifuged. 5 Ml of the supernatant was put into another tube and was added with 2 ml of copper reagent. […] The optical density at 550 mμ was determined.

The next series has as its system Cholesterol in the serum. The series is described as follows: Cholesterol-lowering activity on normal rats of Wistar strain (serum cholesterol, liver weight). The series is classed as in vivo, rats (male Wistar strain). As to conditions: 0.3% in diet; for B - Ratio of decrease of liver weight: continuous administration for 4 days. As for the experimental part:
(3) Cholesteral-lowering activity on normal rats of Wistar strain:
(i) 22 Groups, each consisting of 5 rats (male Wistar strain, weight -- 150 to 180 g) were used for the test and control groups. After this, the blood samples were collected by decapitation and then the corpuscle was removed by centrifugation. Cholesterol in the serum was determined by Zurkowski's method modified by Shibata and also the liver was excised and weighed. The results are shown in Table 4 wherein the ratio of 100% denotes the amount of chloresterol and the weight of the liver of normal rats fed with powdery diet without the addition of the compound.

Series [6] deals with hyperlipemia induced by Triton. Put plainly: Effect on hyperlipemia induced by Triton in rats: activity in the decreasing phase. It is filed as in vivo, rats (male Wistar strain). The method, then:
as §3, §4
(II) Activity in the decreasing phase:
Hyperlipemia occurred by administering Triton (WR-1339) in a similar manner to that in (i). After 25 hours, 200 mg/kg of the compounds were orally administered to the rats. After 30 hours from the injection of Triton, the blood samples were collected by decapitation.

Where [7] appears, read: serum, increasing phase, 200 mg/kg oral, 20 hours.
The mark [8] stands for this setting: ip, intraperitoneal administration, read-out: Acute Toxicity (LD50), B.
Where [9] appears, read: oral administration, read-out: Acute Toxicity (LD50), A.
The mark [10] stands for this setting: continuous administration for 4 days.
Setting [11] is: continuous administration for 14 days.
Setting [12] is: serum, decreasing phase, 200 mg/kg oral 25 hours after Triton, sampled at 30 hours.

Consider `Cc1ccc(CSC(=O)N[C@@H](Cc2ccccc2)C(=O)O)cc1` [Compound 1, N-(4-methylbenzylthiocarbonyl)-L-phenylalanine], for which the LD50 at 168 h in “Acute toxicity in rats” was above 200 mg/kg. Moreover, the “activity in the developing phase (in words)” value in series [1] (Clofibrate, Compounds 1 and 2 compared with each other) was “substantially equal”. In series [1] (setting [7]), the Cholesterol was determined as 198 mg/dL; the “Cholesterol, Ratio of decrease” value is listed as 22.7%; the Triglyceride is 940 mg/dL; the “Triglyceride, Ratio of decrease” value stood at 29.7%. In addition, the inhibition in vivo at 100 mg/kg in [2] was determined as 55%. Moreover, in series [3], the “cholesterol-lowering activity (in words)” value is listed as “have a cholesterol-lowering activity”. Moreover, in series [3] (average of 3 times cross-over), the “Decrease Ratio of Cholesterol” value is 12.2% and the “Decrease Ratio of Triglyceride” value came to 10.8%. Also, the LD50 at 168 h in “Acute toxicity in mice” (setting [8]) was above 100 mg/kg. For the same molecule, the LD50 at 168 h in “Acute toxicity in mice” (setting [9]) was above 4000 mg/kg. For the same molecule, the “activity on lowering triglyceride and cholesterol (in words)” value in series [4] was “have an activity on lowering triglyceride and cholesterol”. Besides, in series [4] (serum, 15% glycerol in water), the Cholesterol amounted to 44.5 mg/dL; the “Cholesterol, Ratio of decrease” value is given as 21.0%; the Triglyceride is 148 mg/dL; the “Triglyceride, Ratio of decrease” value turned out to be 70.0%. Besides, in series [5] (setting [10]), the “A - Ratio of decrease of triglyceride” value amounted to 42.0%, the “B - Ratio of decrease of phospholipid” value was 13.8% and the “C - Ratio of decrease of free fatty acid” value worked out at 27.0%. The “lowering activity on lipids other than cholesterol (in words)” value in [5] (normal rats, 4 days) is on record as “have a lowering activity on lipids other than cholesterol”. Besides, in the series with Cholesterol in the serum, the “B - Ratio of decrease of liver weight” value stood at 14.8%. In the series with Cholesterol in the serum (setting [11]), the “C - Ratio of decrease of cholesterol” value came out at 26.1% and the “D - Ratio of increase of liver weight” value turned out to be 33.1%. In [6] (compared with Clofibrate), the “activity in the decreasing phase (in words)” value was “superior to that of Clofibrate”. In addition, in [6] (setting [12]), the Cholesterol is 103 mg/dL; the “Cholesterol, Ratio of decrease” value is recorded as 30.7%; the Triglyceride was 141 mg/dL; the “Triglyceride, Ratio of decrease” value is 59.4%.

Turning to `COC(=O)[C@H](Cc1ccccc1)NC(=O)SCc1c(C)c(C)c(C)c(C)c1C` [Compound 30, N-(2,3,4,5,6-pentamethylbenzylthiocarbonyl)-L-phenylalanine methylester], the values for the LD50 at 168 h in the series “Acute toxicity in rats” and in the series “Acute toxicity in mice” (setting [9]) were above 100 mg/kg and above 1000 mg/kg, respectively. Also, in series [2], the inhibition in vivo at 100 mg/kg is 68%. Besides, the “B - Ratio of decrease of liver weight” value in the series on Cholesterol in the serum is 11.0%.

`COC(=O)C(Cc1ccccc1)NC(=O)SCc1ccccc1` (racemic) [Compound 19, N-benzylthiocarbonyl-D,L-phenylalanine methylester]: the 50% lethal dose (LD50) at 168 h was above 100 mg/kg in the series “Acute toxicity in rats” and above 1000 mg/kg in the series “Acute toxicity in mice” (setting [9]). Also, the inhibition in vivo at 100 mg/kg in [2] is 84%. The “B - Ratio of decrease of liver weight” value with Cholesterol in the serum worked out at 19.8%.

For `COC(=O)[C@H](Cc1ccccc1)NC(=O)SCc1ccc(OC)cc1` [Compound 13, N-(4-methoxybenzylthiocarbonyl)-L-phenylalanine methylester], the 50% lethal dose (LD50) at 168 h in the series “Acute toxicity in rats” was above 100 mg/kg; in the series “Acute toxicity in mice” (setting [8]) it was above 100 mg/kg; in the series “Acute toxicity in mice” (setting [9]) it was above 1000 mg/kg. Also, in series [2], the inhibition in vivo at 100 mg/kg is 56%. Further, the “B - Ratio of decrease of liver weight” value in the series with Cholesterol in the serum is 38%.

Take `CC(C)(C)c1ccc(CSC(=O)N[C@@H](Cc2ccccc2)C(=O)O)cc1` [Compound 28, N-(4-tert-butylbenzylthiocarbonyl)-L-phenylalanine]: the LD50 at 168 h in “Acute toxicity in rats” was above 100 mg/kg; in “Acute toxicity in mice” (setting [9]) it was above 1000 mg/kg. Besides, the inhibition in vivo at 100 mg/kg in [2] was 50%. The “B - Ratio of decrease of liver weight” value with Cholesterol in the serum turned out to be 10.6%.

Take `COC(=O)[C@H](Cc1ccccc1)NC(=O)SCc1cccc2ccccc12` [Compound 32]: the figures for the LD50 at 168 h in the series “Acute toxicity in rats” and in the series “Acute toxicity in mice” (setting [9]) were above 100 mg/kg and above 1000 mg/kg, respectively. Besides, in series [2], the inhibition in vivo at 100 mg/kg was 56%. In the series on Cholesterol in the serum, the “B - Ratio of decrease of liver weight” value worked out at 12.4%.

On to `NC(=O)[C@H](Cc1ccccc1)NC(=O)SCc1ccc(Cl)cc1` [Compound 9, N-(4-chlorobenzylthiocarbonyl)-L-phenylalanine amide], for which the LD50 at 168 h in the series “Acute toxicity in rats” was above 100 mg/kg; in the series “Acute toxicity in mice” (setting [8]), above 100 mg/kg; in the series “Acute toxicity in mice” (setting [9]), above 1000 mg/kg. Further, the inhibition in vivo at 100 mg/kg in series [2] is 57%. Moreover, the “B - Ratio of decrease of liver weight” value in the series with Cholesterol in the serum stood at 71%.
